Source: ChEMBL document CHEMBL1201862, “PubChem BioAssay data set” (2004)
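Protocol summary: plate cells (96-well), add compound at 5 concentrations, incubate 48 h, interpolate endpoints linearly. The concentration for 50% growth inhibition is given as GI50.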 Activity calls are given as the source filed them. Rule as the data show it: active = GI50 up to about 1.1 µM and inactive = higher.

Tests used:
Experiment in all cases: NCI tumour cell line growth inhibition, 48 h
UO-31 = tested on: UO-31
SF-295 = tested on: SF-295
M19-MEL = tested on: M19-MEL
SK-OV-3 = tested on: SK-OV-3
Malme-3M = tested on: Malme-3M
RPMI-8226 = tested on: RPMI-8226
KM-20L2 = tested on: KM-20L2
NCI-H460 = tested on: NCI-H460
CAKI-1 = tested on: CAKI-1
HCC 2998 = tested on: HCC 2998
SW-620 = tested on: SW-620
LXFL 529 = tested on: LXFL 529
HL-60 = tested on: HL-60
HT-29 = tested on: HT-29
COLO 205 = tested on: COLO 205
UACC-257 = tested on: UACC-257
HOP-92 = tested on: HOP-92
OVCAR-5 = tested on: OVCAR-5
NCI-H522 = tested on: NCI-H522
K562 = tested on: K562
IGROV-1 = tested on: IGROV-1
SK-MEL-5 = tested on: SK-MEL-5
RXF 393 = tested on: RXF 393
UACC-62 = tested on: UACC-62
SF-539 = tested on: SF-539
KM12 = tested on: KM12
OVCAR-8 = tested on: OVCAR-8
TK-10 = tested on: TK-10
SNB-19 = tested on: SNB-19
SNB-75 = tested on: SNB-75
A549 = tested on: A549
CCRF-CEM = tested on: CCRF-CEM
NCI-H23 = tested on: NCI-H23
A498 = tested on: A498
HOP-18 = tested on: HOP-18
HCT-15 = tested on: HCT-15
SF-268 = tested on: SF-268
ACHN = tested on: ACHN
MOLT-4 = tested on: MOLT-4
HCT-116 = tested on: HCT-116
U-251 = tested on: U-251
786-0 = tested on: 786-0
DLD-1 = tested on: DLD-1
LOX IMVI = tested on: LOX IMVI
OVCAR-4 = tested on: OVCAR-4
SN12C = tested on: SN12C
NCI-H226 = tested on: NCI-H226
OVCAR-3 = tested on: OVCAR-3
SK-MEL-28 = tested on: SK-MEL-28
EKVX = tested on: EKVX
SK-MEL-2 = tested on: SK-MEL-2
DU-145 = tested on: DU-145
XF498 = tested on: XF498
SNB-78 = tested on: SNB-78
M14 = tested on: M14
SR = tested on: SR

C=C(C[N+](C)(C)C)N/N=C/c1oc(-c2ccc(OC)c(OC)c2)c(-c2ccc(OC)c(OC)c2)c1[N+](=O)[O-]
GI50 (UO-31): 18.9 µM (inactive)
GI50 (SF-295): 17.5 µM (inactive)
GI50 (M19-MEL): 15.5 µM (inactive)
GI50 (SK-OV-3): 30.3 µM (inactive)
GI50 (Malme-3M): > 10 µM (inactive)
GI50 (RPMI-8226): 14.6 µM (inactive)
GI50 (KM-20L2): 31.7 µM (inactive)
GI50 (NCI-H460): 18.5 µM (inactive)
GI50 (CAKI-1): 32.6 µM (inactive)
GI50 (HCC 2998): 19.3 µM (inactive)
GI50 (SW-620): 18.7 µM (inactive)
GI50 (LXFL 529): 22.9 µM (inactive)
GI50 (HL-60): 8.63 µM (inactive)
GI50 (HT-29): 16.9 µM (inactive)
GI50 (COLO 205): 16.4 µM (inactive)
GI50 (UACC-257): 20.2 µM (inactive)
GI50 (HOP-92): 19.6 µM (inactive)
GI50 (OVCAR-5): 19.1 µM (inactive)
GI50 (NCI-H522): 23.2 µM (inactive)
GI50 (K562): 19.1 µM (inactive)
GI50 (IGROV-1): 18.1 µM (inactive)
GI50 (SK-MEL-5): 16.4 µM (inactive)
GI50 (RXF 393): 15.2 µM (inactive)
GI50 (UACC-62): > 10 µM (inactive)
GI50 (SF-539): 16.7 µM (inactive)
GI50 (KM12): 17.1 µM (inactive)
GI50 (OVCAR-8): 15.8 µM (inactive)
GI50 (TK-10): 22.4 µM (inactive)
GI50 (SNB-19): 34.4 µM (inactive)
GI50 (SNB-75): 19.4 µM (inactive)
GI50 (A549): 38.5 µM (inactive)
GI50 (CCRF-CEM): 13.6 µM (inactive)
GI50 (NCI-H23): 21 µM (inactive)
GI50 (A498): 28.6 µM (inactive)
GI50 (HOP-18): 22.1 µM (inactive)
GI50 (HCT-15): 17.9 µM
GI50 (SF-268): 17.9 µM (inactive)
GI50 (ACHN): 15.4 µM (inactive)
GI50 (MOLT-4): 22.4 µM (inactive)
GI50 (HCT-116): 17 µM (inactive)
GI50 (U-251): 19.5 µM (inactive)
GI50 (786-0): 17.6 µM (inactive)
GI50 (DLD-1): 19.9 µM (inactive)
GI50 (LOX IMVI): 15 µM (inactive)
GI50 (OVCAR-4): 18.5 µM (inactive)
GI50 (SN12C): 16.7 µM (inactive)
GI50 (NCI-H226): 27.3 µM (inactive)
GI50 (OVCAR-3): 24.8 µM (inactive)
GI50 (SK-MEL-28): 18.3 µM (inactive)
GI50 (EKVX): > 100 µM (inactive)
GI50 (SK-MEL-2): 16.7 µM (inactive)
GI50 (DU-145): 34.1 µM (inactive)
GI50 (XF498): 23.7 µM (inactive)
GI50 (SNB-78): 36.4 µM (inactive)
GI50 (M14): 22.1 µM (inactive)
GI50 (SR): 4.69 µM (inactive)
